Laboratory results as given in ChEMBL document CHEMBL4507261, “Data for DCP probe A-192621” (2021).

What was measured:
[1] = molecular target: Tyrosine-protein kinase ABL1 (Homo sapiens) (UniProt P00519); settings: Compound concentration 1000.0 nM
[2] = molecular target: Maternal embryonic leucine zipper kinase (Homo sapiens) (UniProt Q14680); settings: Compound concentration 1000.0 nM
[3] = molecular target: Ribosomal protein S6 kinase alpha-5 (Homo sapiens) (UniProt O75582); settings: Compound concentration 1000.0 nM
[4] = system: Mast/stem cell growth factor receptor Kit (Homo sapiens), P10721 [V559D]; settings: Compound concentration 1000.0 nM
[5] = molecular target: Ephrin type-A receptor 1 (Homo sapiens) (UniProt P21709); settings: Compound concentration 1000.0 nM
[6] = molecular target: Death-associated protein kinase 1 (Homo sapiens) (UniProt P53355); settings: Compound concentration 1000.0 nM
[7] = system: Receptor-type tyrosine-protein kinase FLT3 (Homo sapiens), P36888 [UNDEFINED MUTATION]; settings: Compound concentration 1000.0 nM
[8] = molecular target: Phosphatidylinositol 4-kinase beta (Homo sapiens) (UniProt Q9UBF8); settings: Compound concentration 1000.0 nM
Sequence of Phosphatidylinositol 4-kinase beta (Homo sapiens) (Q9UBF8 2-816 limits assumed): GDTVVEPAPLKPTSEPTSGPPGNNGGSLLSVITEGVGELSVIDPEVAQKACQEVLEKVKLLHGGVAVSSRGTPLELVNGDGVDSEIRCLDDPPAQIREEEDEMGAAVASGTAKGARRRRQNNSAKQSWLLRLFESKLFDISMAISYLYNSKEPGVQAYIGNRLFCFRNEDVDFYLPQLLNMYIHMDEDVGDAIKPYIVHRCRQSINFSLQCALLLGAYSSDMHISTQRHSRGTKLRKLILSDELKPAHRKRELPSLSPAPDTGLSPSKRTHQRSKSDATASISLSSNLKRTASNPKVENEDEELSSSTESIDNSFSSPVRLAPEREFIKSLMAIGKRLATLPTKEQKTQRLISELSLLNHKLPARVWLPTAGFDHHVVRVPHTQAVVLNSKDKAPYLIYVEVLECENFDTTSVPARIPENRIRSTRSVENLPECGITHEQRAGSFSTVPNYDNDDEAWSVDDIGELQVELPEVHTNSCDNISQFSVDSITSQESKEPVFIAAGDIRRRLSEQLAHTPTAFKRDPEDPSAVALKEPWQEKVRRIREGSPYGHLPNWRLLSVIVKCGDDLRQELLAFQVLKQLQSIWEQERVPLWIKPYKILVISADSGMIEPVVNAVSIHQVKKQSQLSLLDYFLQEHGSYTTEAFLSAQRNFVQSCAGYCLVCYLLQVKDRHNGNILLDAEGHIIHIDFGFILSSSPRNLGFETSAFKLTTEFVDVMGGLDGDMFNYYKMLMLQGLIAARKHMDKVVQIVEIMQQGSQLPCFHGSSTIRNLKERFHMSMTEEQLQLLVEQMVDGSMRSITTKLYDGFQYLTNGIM

[9] = molecular target: Serine/threonine-protein kinase 32A (Homo sapiens) (UniProt Q8WU08); settings: Compound concentration 1000.0 nM
[10] = system: Tyrosine-protein kinase ABL1 (Homo sapiens), P00519 [E255K]; settings: Compound concentration 1000.0 nM
[11] = molecular target: Serine/threonine-protein kinase MRCK alpha (Homo sapiens) (UniProt Q5VT25); settings: Compound concentration 1000.0 nM
[12] = molecular target: Myosin-IIIa (Homo sapiens) (UniProt Q8NEV4); settings: Compound concentration 1000.0 nM
[13] = molecular target: AP2-associated protein kinase 1 (Homo sapiens) (UniProt Q2M2I8); settings: Compound concentration 1000.0 nM
Sequence of AP2-associated protein kinase 1 (Homo sapiens) (Q2M2I8 whole entry, looked up): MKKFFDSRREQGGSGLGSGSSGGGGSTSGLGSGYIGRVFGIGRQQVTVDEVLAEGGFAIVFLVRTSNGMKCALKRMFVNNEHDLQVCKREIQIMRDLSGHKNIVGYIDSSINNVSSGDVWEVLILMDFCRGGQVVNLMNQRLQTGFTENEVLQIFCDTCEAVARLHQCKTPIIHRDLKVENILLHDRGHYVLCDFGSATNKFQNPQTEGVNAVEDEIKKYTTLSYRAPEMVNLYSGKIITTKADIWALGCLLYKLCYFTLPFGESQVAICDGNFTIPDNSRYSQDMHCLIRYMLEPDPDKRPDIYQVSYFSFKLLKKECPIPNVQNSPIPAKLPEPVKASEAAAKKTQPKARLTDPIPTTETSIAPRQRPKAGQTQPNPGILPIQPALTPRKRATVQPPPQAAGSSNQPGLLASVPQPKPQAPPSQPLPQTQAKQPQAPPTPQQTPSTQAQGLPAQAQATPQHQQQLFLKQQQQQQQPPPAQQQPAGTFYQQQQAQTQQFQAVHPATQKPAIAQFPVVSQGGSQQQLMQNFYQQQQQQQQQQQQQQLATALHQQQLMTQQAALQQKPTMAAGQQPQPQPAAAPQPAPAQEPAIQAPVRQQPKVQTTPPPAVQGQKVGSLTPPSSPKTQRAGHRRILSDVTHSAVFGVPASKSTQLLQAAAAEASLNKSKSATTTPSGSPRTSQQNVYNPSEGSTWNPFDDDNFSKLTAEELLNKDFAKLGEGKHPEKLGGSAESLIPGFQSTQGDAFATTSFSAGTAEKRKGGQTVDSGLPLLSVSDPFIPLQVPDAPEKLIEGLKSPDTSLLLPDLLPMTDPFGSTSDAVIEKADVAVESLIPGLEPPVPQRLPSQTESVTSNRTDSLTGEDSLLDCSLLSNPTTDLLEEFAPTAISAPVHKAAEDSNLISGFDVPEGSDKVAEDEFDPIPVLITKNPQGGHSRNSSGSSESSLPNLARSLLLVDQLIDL

[14] = molecular target: Peroxisome proliferator-activated receptor gamma (Homo sapiens) (UniProt P37231); assay: PPARgamma (h) Eurofins-Cerep binding assay; set-up: ligand concentration 5 nM; settings: filed as agonist, Compound concentration 10.0 uM
[15] = molecular target: Receptor-interacting serine/threonine-protein kinase 2 (Homo sapiens) (UniProt O43353); settings: Compound concentration 1000.0 nM
[16] = molecular target: BMP-2-inducible protein kinase (Homo sapiens) (UniProt Q9NSY1); settings: Compound concentration 1000.0 nM
[17] = molecular target: Wee1-like protein kinase 2 (Homo sapiens) (UniProt P0C1S8); settings: Compound concentration 1000.0 nM
Sequence of Wee1-like protein kinase 2 (Homo sapiens) (P0C1S8 whole entry, looked up): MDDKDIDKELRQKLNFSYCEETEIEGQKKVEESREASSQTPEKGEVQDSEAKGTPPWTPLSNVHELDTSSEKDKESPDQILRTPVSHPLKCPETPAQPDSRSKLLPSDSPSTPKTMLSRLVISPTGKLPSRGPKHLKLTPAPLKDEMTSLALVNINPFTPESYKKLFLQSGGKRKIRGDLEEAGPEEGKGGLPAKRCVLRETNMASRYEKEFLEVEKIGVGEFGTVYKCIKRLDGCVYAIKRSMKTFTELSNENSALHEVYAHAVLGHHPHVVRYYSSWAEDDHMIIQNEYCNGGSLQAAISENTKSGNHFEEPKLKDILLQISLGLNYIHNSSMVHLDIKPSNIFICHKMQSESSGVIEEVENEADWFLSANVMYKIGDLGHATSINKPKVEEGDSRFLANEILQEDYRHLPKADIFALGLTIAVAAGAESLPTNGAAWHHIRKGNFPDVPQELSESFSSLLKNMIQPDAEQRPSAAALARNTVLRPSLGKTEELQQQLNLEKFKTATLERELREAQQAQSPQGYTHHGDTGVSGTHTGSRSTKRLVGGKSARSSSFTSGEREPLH

[18] = molecular target: Serine/threonine-protein kinase PLK1 (Homo sapiens) (UniProt P53350); settings: Compound concentration 1000.0 nM
[19] = molecular target: T1, Alpha-1B adrenergic receptor (Homo sapiens) (UniProt P35368); assay: Alpha1B (h) Eurofins-Cerep binding assay; settings: filed as antagonist, Compound concentration 10.0 uM
T1 sequence (whole entry): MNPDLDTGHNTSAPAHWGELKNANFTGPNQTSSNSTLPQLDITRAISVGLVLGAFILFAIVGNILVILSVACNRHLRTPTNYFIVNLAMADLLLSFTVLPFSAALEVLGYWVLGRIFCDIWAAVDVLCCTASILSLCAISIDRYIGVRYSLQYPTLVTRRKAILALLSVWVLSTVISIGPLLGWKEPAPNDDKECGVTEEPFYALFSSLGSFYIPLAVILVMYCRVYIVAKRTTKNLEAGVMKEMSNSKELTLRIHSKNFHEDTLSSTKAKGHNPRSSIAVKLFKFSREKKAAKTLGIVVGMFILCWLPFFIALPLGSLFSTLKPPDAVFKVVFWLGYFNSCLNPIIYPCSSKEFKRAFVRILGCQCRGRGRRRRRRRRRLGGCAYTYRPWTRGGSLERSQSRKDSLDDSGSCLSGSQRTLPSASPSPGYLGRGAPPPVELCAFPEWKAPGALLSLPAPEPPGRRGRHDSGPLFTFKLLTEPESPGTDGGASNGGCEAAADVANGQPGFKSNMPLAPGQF

[20] = molecular target: Acetylcholinesterase (Homo sapiens) (UniProt P22303); assay: Acetylcholinesterase (h) Eurofins-Cerep enzyme and uptake assay; settings: Compound concentration 10.0 uM
[21] = molecular target: Mitogen-activated protein kinase kinase kinase 15 (Homo sapiens) (UniProt Q6ZN16); settings: Compound concentration 1000.0 nM
Sequence of Mitogen-activated protein kinase kinase kinase 15 (Homo sapiens) (Q6ZN16 whole entry): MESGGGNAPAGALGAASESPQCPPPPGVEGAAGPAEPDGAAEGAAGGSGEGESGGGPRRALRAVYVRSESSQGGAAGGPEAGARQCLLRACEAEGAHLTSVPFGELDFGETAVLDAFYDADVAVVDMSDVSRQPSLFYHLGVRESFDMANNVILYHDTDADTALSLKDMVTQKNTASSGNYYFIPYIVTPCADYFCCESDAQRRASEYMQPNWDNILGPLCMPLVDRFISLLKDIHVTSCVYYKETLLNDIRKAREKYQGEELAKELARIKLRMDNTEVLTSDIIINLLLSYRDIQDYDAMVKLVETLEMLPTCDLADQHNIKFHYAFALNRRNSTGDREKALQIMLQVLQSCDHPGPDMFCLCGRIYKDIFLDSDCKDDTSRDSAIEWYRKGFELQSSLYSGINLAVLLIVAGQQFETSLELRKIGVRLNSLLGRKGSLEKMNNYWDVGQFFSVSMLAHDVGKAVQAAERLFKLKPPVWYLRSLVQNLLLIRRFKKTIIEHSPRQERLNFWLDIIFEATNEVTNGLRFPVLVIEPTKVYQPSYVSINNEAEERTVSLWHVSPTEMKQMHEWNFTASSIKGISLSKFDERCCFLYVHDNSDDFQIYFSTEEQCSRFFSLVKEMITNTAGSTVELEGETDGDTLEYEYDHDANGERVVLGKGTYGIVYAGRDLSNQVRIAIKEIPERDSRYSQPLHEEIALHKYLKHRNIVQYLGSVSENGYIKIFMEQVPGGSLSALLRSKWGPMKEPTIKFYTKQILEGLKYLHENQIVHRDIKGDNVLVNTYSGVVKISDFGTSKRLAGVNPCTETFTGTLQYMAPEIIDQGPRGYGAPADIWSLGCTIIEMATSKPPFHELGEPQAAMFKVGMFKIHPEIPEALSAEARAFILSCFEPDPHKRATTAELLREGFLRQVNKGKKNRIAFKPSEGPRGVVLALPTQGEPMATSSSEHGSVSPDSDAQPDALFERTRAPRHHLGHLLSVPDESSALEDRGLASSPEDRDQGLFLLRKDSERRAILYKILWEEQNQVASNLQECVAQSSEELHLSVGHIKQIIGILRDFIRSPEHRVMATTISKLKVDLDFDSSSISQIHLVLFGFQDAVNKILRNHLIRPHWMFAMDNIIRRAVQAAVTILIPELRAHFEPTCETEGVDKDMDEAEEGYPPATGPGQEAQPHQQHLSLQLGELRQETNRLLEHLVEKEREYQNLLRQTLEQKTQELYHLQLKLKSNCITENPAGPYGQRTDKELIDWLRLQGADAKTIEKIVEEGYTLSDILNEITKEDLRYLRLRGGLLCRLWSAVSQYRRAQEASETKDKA

[22] = system: Proto-oncogene tyrosine-protein kinase receptor Ret (Homo sapiens), P07949 [V804L]; settings: Compound concentration 1000.0 nM
[23] = molecular target: T2, Alpha-1A adrenergic receptor (Homo sapiens) (UniProt P35348); assay: Alpha1A (h) Eurofins-Cerep binding assay; set-up: ligand concentration 0.1 nM; settings: filed as antagonist, Compound concentration 10.0 uM
T2 sequence (whole entry): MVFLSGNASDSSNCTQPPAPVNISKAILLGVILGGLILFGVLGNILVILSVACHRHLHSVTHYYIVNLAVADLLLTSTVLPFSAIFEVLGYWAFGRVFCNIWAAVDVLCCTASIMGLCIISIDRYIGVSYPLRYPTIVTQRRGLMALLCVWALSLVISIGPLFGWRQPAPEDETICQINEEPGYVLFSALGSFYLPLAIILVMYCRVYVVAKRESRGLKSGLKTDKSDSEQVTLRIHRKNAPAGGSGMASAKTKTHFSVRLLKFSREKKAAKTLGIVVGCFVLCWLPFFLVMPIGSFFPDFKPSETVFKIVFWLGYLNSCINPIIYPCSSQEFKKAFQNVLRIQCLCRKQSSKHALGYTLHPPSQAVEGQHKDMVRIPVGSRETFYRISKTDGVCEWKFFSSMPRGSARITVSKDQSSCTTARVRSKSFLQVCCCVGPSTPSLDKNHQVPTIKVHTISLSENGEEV

[24] = molecular target: Testis-specific serine/threonine-protein kinase 1 (Homo sapiens) (UniProt Q9BXA7); settings: Compound concentration 1000.0 nM
Sequence of Testis-specific serine/threonine-protein kinase 1 (Homo sapiens) (Q9BXA7 whole entry): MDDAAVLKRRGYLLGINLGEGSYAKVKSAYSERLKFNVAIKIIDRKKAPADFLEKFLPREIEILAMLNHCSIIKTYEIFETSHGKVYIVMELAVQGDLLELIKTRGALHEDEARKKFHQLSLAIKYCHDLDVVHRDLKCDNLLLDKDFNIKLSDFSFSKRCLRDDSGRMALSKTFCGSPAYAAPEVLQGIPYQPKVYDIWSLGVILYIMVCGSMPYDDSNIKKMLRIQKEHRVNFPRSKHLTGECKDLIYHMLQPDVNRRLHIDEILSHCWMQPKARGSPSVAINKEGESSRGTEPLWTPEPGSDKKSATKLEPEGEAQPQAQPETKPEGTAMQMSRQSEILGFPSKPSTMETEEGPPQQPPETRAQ

[25] = molecular target: Cyclin-dependent kinase 11B (Homo sapiens) (UniProt P21127); settings: Compound concentration 1000.0 nM
[26] = molecular target: Ephrin type-A receptor 6 (Homo sapiens) (UniProt Q9UF33); settings: Compound concentration 1000.0 nM
Sequence of Ephrin type-A receptor 6 (Homo sapiens) (Q9UF33 whole entry): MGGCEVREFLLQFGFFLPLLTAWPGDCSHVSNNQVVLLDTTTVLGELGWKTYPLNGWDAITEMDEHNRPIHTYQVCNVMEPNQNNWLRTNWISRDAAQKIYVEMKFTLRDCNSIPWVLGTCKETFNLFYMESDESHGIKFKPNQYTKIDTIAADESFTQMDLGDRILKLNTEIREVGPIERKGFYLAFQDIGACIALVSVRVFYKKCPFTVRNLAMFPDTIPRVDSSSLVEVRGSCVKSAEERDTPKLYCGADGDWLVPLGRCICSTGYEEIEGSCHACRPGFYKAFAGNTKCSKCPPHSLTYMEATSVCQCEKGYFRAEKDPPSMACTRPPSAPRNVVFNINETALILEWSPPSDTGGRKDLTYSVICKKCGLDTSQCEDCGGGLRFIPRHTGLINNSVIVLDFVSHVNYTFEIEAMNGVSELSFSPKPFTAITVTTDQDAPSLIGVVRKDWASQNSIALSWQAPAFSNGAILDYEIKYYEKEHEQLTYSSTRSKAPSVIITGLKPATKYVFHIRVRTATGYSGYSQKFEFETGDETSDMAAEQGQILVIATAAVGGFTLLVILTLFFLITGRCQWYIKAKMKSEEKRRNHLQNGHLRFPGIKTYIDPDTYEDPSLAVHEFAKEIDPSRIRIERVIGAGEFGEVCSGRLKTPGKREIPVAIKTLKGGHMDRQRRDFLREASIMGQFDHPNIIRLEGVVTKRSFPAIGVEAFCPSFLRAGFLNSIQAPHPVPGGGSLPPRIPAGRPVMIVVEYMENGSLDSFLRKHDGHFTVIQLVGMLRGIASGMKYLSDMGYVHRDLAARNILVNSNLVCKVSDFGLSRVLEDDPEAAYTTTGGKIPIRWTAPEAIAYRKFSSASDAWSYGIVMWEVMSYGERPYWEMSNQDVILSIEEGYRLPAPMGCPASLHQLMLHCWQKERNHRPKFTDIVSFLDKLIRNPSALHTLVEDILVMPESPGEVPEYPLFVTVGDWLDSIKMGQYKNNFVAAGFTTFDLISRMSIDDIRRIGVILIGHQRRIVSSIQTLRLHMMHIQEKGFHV

[27] = molecular target: Fibroblast growth factor receptor 2 (Homo sapiens) (UniProt P21802); settings: Compound concentration 1000.0 nM
[28] = molecular target: Serine/threonine-protein kinase NIM1 (Homo sapiens) (UniProt Q8IY84); settings: Compound concentration 1000.0 nM
[29] = molecular target: Mitogen-activated protein kinase kinase kinase 10 (Homo sapiens) (UniProt Q02779); settings: Compound concentration 1000.0 nM
[30] = molecular target: Serine/threonine-protein kinase DCLK3 (Homo sapiens) (UniProt Q9C098); settings: Compound concentration 1000.0 nM
[31] = molecular target: 5-hydroxytryptamine receptor 2B (Homo sapiens) (UniProt P41595); assay: 5-HT2B (h) Eurofins-Cerep binding assay; set-up: ligand concentration 0.2 nM; settings: filed as agonist, Compound concentration 10.0 uM
[32] = molecular target: Protein kinase C epsilon type (Homo sapiens) (UniProt Q02156); settings: Compound concentration 1000.0 nM

SMILES	residual activity [1] [%]	residual activity [2] [%]	residual activity [3] [%]	residual activity [4] [%]	residual activity [5] [%]	residual activity [6] [%]	residual activity [7] [%]	residual activity [8] [%]	residual activity [9] [%]	residual activity [10] [%]	residual activity [11] [%]	residual activity [12] [%]	residual activity [13] [%]	% Inhibition of Control Specific Binding (Mean n=2) [14] [%]	residual activity [15] [%]	residual activity [16] [%]	residual activity [17] [%]	residual activity [18] [%]	% Inhibition of Control Specific Binding (Mean n=2) [19] [%]	% Inhibition of Control Values (Mean n=2) [20] [%]	further results
CCCOc1ccc([C@H]2[C@H](C(=O)O)[C@@H](c3ccc4c(c3)OCO4)CN2CC(=O)Nc2c(CC)cccc2CC)cc1 [A-192621]	70	65	98	87	86	90	81	75	93	70	94	100	95	40.3	100	87	85	80	3.2	7	residual activity [21]: 73%; residual activity [22]: 93%; % Inhibition of Control Specific Binding (Mean n=2) [23]: 5%; residual activity [24]: 92%; residual activity [25]: 100%; residual activity [26]: 100%; residual activity [27]: 100%; residual activity [28]: 78%; residual activity [29]: 100%; residual activity [30]: 100%; % Inhibition of Control Specific Binding (Mean n=2) [31]: -1.9%; residual activity [32]: 74%
CCCOc1ccc([C@@H]2[C@@H](C(=O)O)[C@H](c3ccc4c(c3)OCO4)CN2CC(=O)Nc2c(CC)cccc2CC)cc1 [A-1806262]	88	84	99	93	100	83	91	100	85	82	90	100	90	67	84	92	87	95	3.1	4	residual activity [21]: 99%; residual activity [22]: 97%; % Inhibition of Control Specific Binding (Mean n=2) [23]: 3.7%; residual activity [24]: 100%; residual activity [25]: 94%; residual activity [26]: 98%; residual activity [27]: 100%; residual activity [28]: 81%; residual activity [29]: 100%; residual activity [30]: 100%; % Inhibition of Control Specific Binding (Mean n=2) [31]: -16.5%; residual activity [32]: 97%
